Measured values reported in patent EP0063075A1, “(2,6-Dimethoxy-4-hydroxyphenyl)-(3-piperidinopropyl) ketone and its salts, its use in therapeutic preparations and process for its production” (LABORATOIRE L. LAFON Société anonyme dite:, priority 1981, dated 1982).

Key:
[1] = result in words, compared with LL 1656; cited from earlier work
[2] = system: chien mâle anesthésié au nembutal; test: Peripheral vasodilator properties, intravenous administration in the anaesthetised dog; type: in vivo
Experimental: (§1) Les propriétés vasodilatatrices périphériques ont été étudiées chez le chien mâle anesthésié au nembutal (6 animaux par dose et par produit). Les produits à comparer sont administrés en solution dans du sérum physiologique sous un volume de 6 ml/animal par voie intraveineuse (perfusion de 1 ml/min) et sous un volume de 10 ml/animal par voie intraduodénale. Par rapport aux témoins (les mêmes animaux ne recevant que le sérum physiologique), on mesure trois paramètres : la pression artérielle moyenne (exprimée en mm Hg; mm Hg correspond à 1,333224 x 10^2 Pa), la fréquence cardiaque (exprimée en battements/minute) et le débit artériel fémoral (exprimé en ml/min). Les variations de ces paramètres exprimées en pourcentages, par rapport aux témoins, sont données dans les tableaux II (administration intraveineuse) et III (administration intraduodénale) ci-après.
(§2) La vasodilatation périphérique se traduit dans ces circonstances par une augmentation du débit artériel fémoral. On dit, selon les présentes conditions opératoires, qu'un produit est un agent vasodilatateur périphérique si le débit artériel fémoral augmente d'au moins 30% par administration intraveineuse, d'une part, et par administration intraduodénale, d'autre part, sans que la variation de la pression artérielle soit supérieure à +10% ou inférieure à -10%.

[3] = system: chien mâle anesthésié au nembutal; test: Peripheral vasodilator properties, intraduodenal administration in the anaesthetised dog; type: in vivo; conditions: for effet sur la pression artérielle par voie I.D. / effet vasodilatateur par voie I.D.: result in words
Experimental: as §1, §2

[4] = Solubility in water (description of the isolated product); type: physicochemical; conditions: result in words
[5] = as indicated in British patent n° 1.325.192; cited from earlier work
escarres = test: Clinical use in the treatment of bedsores; type: in vivo, homme; conditions: in man

## O=C(CCCN1CCCC1)c1c(O)cc(O)cc1O [(2,4,6-trihydroxyphényl)-(3-pyrrolidinopropyl)-cétone]
[1]
  propriétés vasodilatatrices périphériques: aussi intéressants que le LL 1656

## COc1cc(O)c(C(=O)CCCN2CCCC2)c(OC)c1 [(2,4-diméthoxy-6-hydroxyphényl)-(3-pyrrolidinopropyl)-cétone]
[1]
  propriétés vasodilatatrices périphériques: aussi intéressants que le LL 1656

## COc1cc(O)cc(OC)c1C(=O)CCCN1CCCC1 [(2,6-diméthoxy-4-hydroxy-phényl)-(3-pyrrolidinopropyl)-cétone]
[1]
  propriétés vasodilatatrices périphériques: dépourvus d'effets vasodilatateurs périphériques

## COc1cc(O)c(C(=O)CCCN2CCCCC2)c(OC)c1 [CP1, chlorhydratede (2,4-diméthoxy-6-hydroxyphényl)-(3-pipé-ridinopropyl)-cétone]
[2]; result in words, i.v. route
  effet vasodilatateur par voie I.V.: très faiblement vasodilatateur
[3]; intraduodenal route
  diminution de la pression artérielle par voie I.D.: > 10%
  effet sur la pression artérielle par voie I.D.: effet hypotenseur
  effet vasodilatateur par voie I.D.: n'a guère d'effet vasodilatateur
[4]
  solubilité dans l'eau: très soluble dans l'eau

## O=C(CCCN1CCCCC1)c1c(O)cc(O)cc1O [CP2, chlorhydratede (2,4,6-trihydroxyphényl)-(3-pipéridinopropyl)-cétone]
[3]; intraduodenal route
  variation du débit artériel fémoral par voie I.D.: +17%
  effet sur la pression artérielle par voie I.D.: effet hypotenseur
  effet vasodilatateur par voie I.D.: pratiquement dépourvu d'effet vasodilatateur
[5]
  dose à partir de laquelle le produit est vasodilatateur par voie I.V.: ≥ 5 mg/kg

## COc1ccc(C(=O)CN2CCCCC2)c(OC)c1 [CP5, (2,4-dimé-thoxyphényl)-(pipéridinométhyl)-cétone]
[3]; Canis lupus familiaris, intraduodenal, dose 20 mg/kg, versus controls, read-out: Variations en % Pression artérielle
  change in vivo at 20 mg/kg: 0%

## COc1cc(OC)c(C(=O)CCCN2CCCC2)c(OC)c1 [CP7, chlorhydratede (2,4,6-triméthoxyphényl)-(3-pyrrolidinopropyl)-cétone]
[2]; Canis lupus familiaris, intravenous, dose 6 mg/kg, versus controls, read-out: Variations en % Fréquence cardiaque
  change in vivo at 6 mg/kg: 0%
[2]; Canis lupus familiaris, intravenous, dose 1,5 mg/kg, versus controls, read-out: Variations en % Pression artérielle
  change in vivo at 1.5 mg/kg: 0%

## COc1cc(O)cc(OC)c1C(=O)CCCN1CCCCC1 [Exemple 1, chlorhydratede (2,6-diméthoxy-4-hydroxyphényl)-(3-pipéridinopropyl)-cétone]
[2]; text conclusion from tables II and III (i.v. and i.d.)
  activité en tant que vasodilatateur périphérique (comparaison): aussi actif que le produit de référence CP7
[2]; text summary over all i.v. doses (toujours)
  variation du débit artériel fémoral par voie I.V.: > +30%
[3]; intraduodenal route
  variation du débit artériel fémoral par voie I.D.: > +30%
escarres
  résultats dans le traitement des escarres: bons résultats
[4]
  solubilité dans l'eau: soluble dans l'eau

## (2,6-dihydroxy-4-méthoxyphényl)- ou (2,4-dihydroxy-6-méthoxyphényl)-(3-pyrrolidinopropyl)-cétone
[1]
  propriétés vasodilatatrices périphériques: dépourvus d'effets vasodilatateurs périphériques
